We go through two compounds from ChEMBL document CHEMBL4507288 (2021).

What is called Ki is a measure of affinity in units of concentration, obtained from inhibition or displacement. In general, inhibition refers to the percentage by which the read-out fell short of the control.

Assay [1] deals with D(2) dopamine receptor (Homo sapiens, UniProt P14416). Briefly: GPCRScan assay: inhibition of D2. The arrangement: radioligand conc. used [nm] 0.4 – 1.0, parental cells stable fibroblast.
In assay [2] the test system is Tyrosine-protein kinase ABL1 (Homo sapiens), P00519 [F317L]. The conditions noted are these: Compound concentration 1000.0 nM.
Assay [3] has as its system Tyrosine-protein kinase ABL1 (Homo sapiens), P00519 [H396P]. The conditions noted are these: Compound concentration 1000.0 nM.
The subject of assay [4] is Tyrosine-protein kinase ABL1 (Homo sapiens), P00519 [Q252H]. The note with it: Compound concentration 1000.0 nM.
For assay [5], the target named is Aurora kinase C (Homo sapiens) (UniProt Q9UQB9). The note with it: Compound concentration 1000.0 nM.
Assay [6] concerns the target Bone morphogenetic protein receptor type-1A (Homo sapiens) (UniProt P36894). The note with it: Compound concentration 1000.0 nM.
In assay [7] the target is Bone morphogenetic protein receptor type-1B (Homo sapiens) (UniProt O00238). The conditions noted are these: Compound concentration 1000.0 nM.
Assay [8] concerns the target Calcium/calmodulin-dependent protein kinase type IV (Homo sapiens) (UniProt Q16566). The conditions noted are these: Compound concentration 1000.0 nM.
Assay [9] concerns the target Cyclin-dependent kinase 2 (Homo sapiens) (UniProt P24941). The conditions noted are these: Compound concentration 1000.0 nM.
The target in assay [10] is Cyclin-dependent kinase 3 (Homo sapiens) (UniProt Q00526). The note with it: Compound concentration 1000.0 nM.
Sequence of Cyclin-dependent kinase 3 (Homo sapiens) (Q00526 whole entry, looked up): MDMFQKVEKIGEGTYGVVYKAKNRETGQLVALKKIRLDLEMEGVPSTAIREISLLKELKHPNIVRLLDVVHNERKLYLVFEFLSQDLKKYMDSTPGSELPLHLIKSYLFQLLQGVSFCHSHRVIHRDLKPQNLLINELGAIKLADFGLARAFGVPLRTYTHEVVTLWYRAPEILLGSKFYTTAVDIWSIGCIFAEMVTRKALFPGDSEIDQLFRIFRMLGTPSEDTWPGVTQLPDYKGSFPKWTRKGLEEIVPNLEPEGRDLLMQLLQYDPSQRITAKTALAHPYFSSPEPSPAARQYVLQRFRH
The target in assay [11] is Cyclin-dependent kinase 4 (Homo sapiens) (UniProt P11802). The note with it: Compound concentration 1000.0 nM.
In assay [12] the target is Casein kinase I isoform alpha (Homo sapiens) (UniProt P48729). The note with it: Compound concentration 1000.0 nM.
Assay [13] concerns Epidermal growth factor receptor (Homo sapiens), P00533 [L861Q]. The note with it: Compound concentration 1000.0 nM.
Assay [14] concerns Epidermal growth factor receptor (Homo sapiens), P00533 [T790M]. The note with it: Compound concentration 1000.0 nM.
The target in assay [15] is Mitogen-activated protein kinase 3 (Homo sapiens) (UniProt P27361). The note with it: Compound concentration 1000.0 nM.
Sequence of Mitogen-activated protein kinase 3 (Homo sapiens) (P27361 whole entry): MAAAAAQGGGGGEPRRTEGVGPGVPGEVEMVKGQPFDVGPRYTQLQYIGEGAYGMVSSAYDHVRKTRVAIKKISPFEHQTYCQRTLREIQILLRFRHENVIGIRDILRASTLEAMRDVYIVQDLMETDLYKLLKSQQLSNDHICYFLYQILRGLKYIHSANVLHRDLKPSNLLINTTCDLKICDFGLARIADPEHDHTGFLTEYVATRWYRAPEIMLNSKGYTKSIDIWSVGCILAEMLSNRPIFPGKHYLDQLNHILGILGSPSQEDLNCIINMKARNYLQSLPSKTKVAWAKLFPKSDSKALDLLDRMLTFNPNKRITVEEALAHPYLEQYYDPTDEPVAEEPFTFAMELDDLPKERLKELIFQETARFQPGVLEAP
In assay [16] the target is Mitogen-activated protein kinase 15 (Homo sapiens) (UniProt Q8TD08). The note with it: Compound concentration 1000.0 nM.
Assay [17] relates to Receptor-type tyrosine-protein kinase FLT3 (Homo sapiens), P36888 [D835H]. The conditions noted are these: Compound concentration 1000.0 nM.
The subject of assay [18] is Receptor-type tyrosine-protein kinase FLT3 (Homo sapiens), P36888 [D835Y]. The note with it: Compound concentration 1000.0 nM.
Assay [19] concerns Receptor-type tyrosine-protein kinase FLT3 (Homo sapiens), P36888 [UNDEFINED MUTATION]. The conditions noted are these: Compound concentration 1000.0 nM.
Assay [20] concerns Receptor-type tyrosine-protein kinase FLT3 (Homo sapiens), P36888 [N841I]. The note with it: Compound concentration 1000.0 nM.
Assay [21] addresses Rhodopsin kinase GRK1 (Homo sapiens) (UniProt Q15835). The note with it: Compound concentration 1000.0 nM.
Assay [22] has as its target Rhodopsin kinase GRK7 (Homo sapiens) (UniProt Q8WTQ7). The conditions noted are these: Compound concentration 1000.0 nM.
The target in assay [23] is Tyrosine-protein kinase ITK/TSK (Homo sapiens) (UniProt Q08881). The note with it: Compound concentration 1000.0 nM.
Assay [24] concerns the target Mast/stem cell growth factor receptor Kit (Homo sapiens) (UniProt P10721). The note with it: Compound concentration 1000.0 nM.
The subject of assay [25] is Mast/stem cell growth factor receptor Kit (Homo sapiens), P10721 [V559D,V654A]. The note with it: Compound concentration 1000.0 nM.
The target in assay [26] is MAP kinase-activated protein kinase 5 (Homo sapiens) (UniProt Q8IW41). The note with it: Compound concentration 1000.0 nM.
Assay [27] has as its target Microtubule-associated serine/threonine-protein kinase 1 (Homo sapiens) (UniProt Q9Y2H9). The note with it: Compound concentration 1000.0 nM.
The target of assay [28] is Dual specificity mitogen-activated protein kinase kinase 2 (Homo sapiens) (UniProt P36507). The conditions noted are these: Compound concentration 1000.0 nM.
Sequence of Dual specificity mitogen-activated protein kinase kinase 2 (Homo sapiens) (P36507 whole entry): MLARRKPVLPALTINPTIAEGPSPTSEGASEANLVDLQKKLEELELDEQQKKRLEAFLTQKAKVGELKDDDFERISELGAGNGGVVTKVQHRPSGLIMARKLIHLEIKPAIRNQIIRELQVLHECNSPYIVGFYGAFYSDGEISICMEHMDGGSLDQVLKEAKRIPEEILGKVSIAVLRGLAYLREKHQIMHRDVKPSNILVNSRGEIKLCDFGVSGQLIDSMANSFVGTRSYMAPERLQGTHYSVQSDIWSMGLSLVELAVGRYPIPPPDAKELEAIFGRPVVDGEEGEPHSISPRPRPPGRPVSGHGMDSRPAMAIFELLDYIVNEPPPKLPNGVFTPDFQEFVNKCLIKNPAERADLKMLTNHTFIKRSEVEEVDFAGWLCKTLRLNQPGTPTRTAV
For assay [29], the target named is Maternal embryonic leucine zipper kinase (Homo sapiens) (UniProt Q14680). The note with it: Compound concentration 1000.0 nM.
Assay [30] has as its target Serine/threonine-protein kinase 24 (Homo sapiens) (UniProt Q9Y6E0). The conditions noted are these: Compound concentration 1000.0 nM.
Assay [31] has as its target Muscle, skeletal receptor tyrosine-protein kinase (Homo sapiens) (UniProt O15146). The conditions noted are these: Compound concentration 1000.0 nM.
Assay [32] has as its target Serine/threonine-protein kinase Nek11 (Homo sapiens) (UniProt Q8NG66). The conditions noted are these: Compound concentration 1000.0 nM.
For assay [33], the target named is Serine/threonine-protein kinase PAK 6 (Homo sapiens) (UniProt Q9NQU5). The note with it: Compound concentration 1000.0 nM.
In assay [34] the target is Cyclin-dependent kinase 2 homolog (Plasmodium falciparum (isolate 3D7)) (UniProt P61075). The note with it: Compound concentration 1000.0 nM.
Assay [35] deals with 1-phosphatidylinositol 3-phosphate 5-kinase (Homo sapiens) (UniProt Q9Y2I7). The note with it: Compound concentration 1000.0 nM.
For assay [36], the target named is Serine/threonine-protein kinase pim-3 (Homo sapiens) (UniProt Q86V86). The conditions noted are these: Compound concentration 1000.0 nM.
In assay [37] the target is Serine/threonine-protein kinase N1 (Homo sapiens) (UniProt Q16512). The conditions noted are these: Compound concentration 1000.0 nM.
In assay [38] the test system is Proto-oncogene tyrosine-protein kinase receptor Ret (Homo sapiens), P07949 [V804M]. The note with it: Compound concentration 1000.0 nM.
Assay [39] deals with Proto-oncogene tyrosine-protein kinase ROS (Homo sapiens) (UniProt P08922). The conditions noted are these: Compound concentration 1000.0 nM.
For assay [40], the target named is Ribosomal protein S6 kinase alpha-3 (Homo sapiens) (UniProt P51812). The conditions noted are these: Compound concentration 1000.0 nM.
The target of assay [41] is Proto-oncogene tyrosine-protein kinase Src (Homo sapiens) (UniProt P12931). The conditions noted are these: Compound concentration 1000.0 nM.
Assay [42] addresses Serine/threonine-protein kinase TAO3 (Homo sapiens) (UniProt Q9H2K8). The note with it: Compound concentration 1000.0 nM.
The target of assay [43] is Angiopoietin-1 receptor (Homo sapiens) (UniProt Q02763). The note with it: Compound concentration 1000.0 nM.
Assay [44] concerns the target Non-receptor tyrosine-protein kinase TNK1 (Homo sapiens) (UniProt Q13470). The conditions noted are these: Compound concentration 1000.0 nM.
Assay [45] is filed under the species Rattus norvegicus. The conditions noted are these: Compound concentration 10.0 uM.

Sequence of Rhodopsin kinase GRK7 (Homo sapiens) (Q8WTQ7 whole entry): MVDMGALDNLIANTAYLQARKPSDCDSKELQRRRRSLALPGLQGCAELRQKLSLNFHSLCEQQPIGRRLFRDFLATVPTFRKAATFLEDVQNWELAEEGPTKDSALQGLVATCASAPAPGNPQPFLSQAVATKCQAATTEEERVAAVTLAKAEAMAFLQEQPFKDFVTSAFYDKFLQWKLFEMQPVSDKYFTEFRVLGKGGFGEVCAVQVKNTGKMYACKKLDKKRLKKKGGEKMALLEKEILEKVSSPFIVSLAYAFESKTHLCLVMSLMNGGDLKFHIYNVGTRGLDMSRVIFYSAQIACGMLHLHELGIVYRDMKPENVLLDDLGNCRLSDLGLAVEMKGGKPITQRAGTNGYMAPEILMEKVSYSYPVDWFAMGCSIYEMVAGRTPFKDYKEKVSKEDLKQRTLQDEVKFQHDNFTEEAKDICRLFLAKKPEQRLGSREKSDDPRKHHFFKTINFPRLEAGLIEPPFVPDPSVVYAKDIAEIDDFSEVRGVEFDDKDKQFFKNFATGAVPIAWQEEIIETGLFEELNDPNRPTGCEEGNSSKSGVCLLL
Sequence of Muscle, skeletal receptor tyrosine-protein kinase (Homo sapiens) (O15146 whole entry): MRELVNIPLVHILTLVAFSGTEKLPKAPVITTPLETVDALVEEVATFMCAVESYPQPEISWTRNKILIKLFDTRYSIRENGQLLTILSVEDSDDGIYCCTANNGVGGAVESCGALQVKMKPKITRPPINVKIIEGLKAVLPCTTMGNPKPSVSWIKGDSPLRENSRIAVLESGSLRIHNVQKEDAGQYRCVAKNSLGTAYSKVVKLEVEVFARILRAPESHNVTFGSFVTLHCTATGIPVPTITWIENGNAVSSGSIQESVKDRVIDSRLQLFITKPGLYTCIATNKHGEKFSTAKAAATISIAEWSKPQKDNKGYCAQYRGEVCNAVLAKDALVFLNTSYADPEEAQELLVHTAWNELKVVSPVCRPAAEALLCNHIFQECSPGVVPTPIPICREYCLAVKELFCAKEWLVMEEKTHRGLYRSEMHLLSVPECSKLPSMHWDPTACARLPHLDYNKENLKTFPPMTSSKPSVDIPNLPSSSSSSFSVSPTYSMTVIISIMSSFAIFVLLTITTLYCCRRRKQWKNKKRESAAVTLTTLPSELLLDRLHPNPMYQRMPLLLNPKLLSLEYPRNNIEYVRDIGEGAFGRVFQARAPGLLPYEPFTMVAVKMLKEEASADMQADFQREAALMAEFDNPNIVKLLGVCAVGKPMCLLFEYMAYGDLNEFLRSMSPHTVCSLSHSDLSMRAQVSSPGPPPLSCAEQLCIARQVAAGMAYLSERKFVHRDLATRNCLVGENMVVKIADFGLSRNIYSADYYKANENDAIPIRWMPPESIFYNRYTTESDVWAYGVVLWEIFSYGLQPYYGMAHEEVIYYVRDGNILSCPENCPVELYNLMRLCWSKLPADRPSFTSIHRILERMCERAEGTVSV
Sequence of Microtubule-associated serine/threonine-protein kinase 1 (Homo sapiens) (Q9Y2H9 whole entry, looked up): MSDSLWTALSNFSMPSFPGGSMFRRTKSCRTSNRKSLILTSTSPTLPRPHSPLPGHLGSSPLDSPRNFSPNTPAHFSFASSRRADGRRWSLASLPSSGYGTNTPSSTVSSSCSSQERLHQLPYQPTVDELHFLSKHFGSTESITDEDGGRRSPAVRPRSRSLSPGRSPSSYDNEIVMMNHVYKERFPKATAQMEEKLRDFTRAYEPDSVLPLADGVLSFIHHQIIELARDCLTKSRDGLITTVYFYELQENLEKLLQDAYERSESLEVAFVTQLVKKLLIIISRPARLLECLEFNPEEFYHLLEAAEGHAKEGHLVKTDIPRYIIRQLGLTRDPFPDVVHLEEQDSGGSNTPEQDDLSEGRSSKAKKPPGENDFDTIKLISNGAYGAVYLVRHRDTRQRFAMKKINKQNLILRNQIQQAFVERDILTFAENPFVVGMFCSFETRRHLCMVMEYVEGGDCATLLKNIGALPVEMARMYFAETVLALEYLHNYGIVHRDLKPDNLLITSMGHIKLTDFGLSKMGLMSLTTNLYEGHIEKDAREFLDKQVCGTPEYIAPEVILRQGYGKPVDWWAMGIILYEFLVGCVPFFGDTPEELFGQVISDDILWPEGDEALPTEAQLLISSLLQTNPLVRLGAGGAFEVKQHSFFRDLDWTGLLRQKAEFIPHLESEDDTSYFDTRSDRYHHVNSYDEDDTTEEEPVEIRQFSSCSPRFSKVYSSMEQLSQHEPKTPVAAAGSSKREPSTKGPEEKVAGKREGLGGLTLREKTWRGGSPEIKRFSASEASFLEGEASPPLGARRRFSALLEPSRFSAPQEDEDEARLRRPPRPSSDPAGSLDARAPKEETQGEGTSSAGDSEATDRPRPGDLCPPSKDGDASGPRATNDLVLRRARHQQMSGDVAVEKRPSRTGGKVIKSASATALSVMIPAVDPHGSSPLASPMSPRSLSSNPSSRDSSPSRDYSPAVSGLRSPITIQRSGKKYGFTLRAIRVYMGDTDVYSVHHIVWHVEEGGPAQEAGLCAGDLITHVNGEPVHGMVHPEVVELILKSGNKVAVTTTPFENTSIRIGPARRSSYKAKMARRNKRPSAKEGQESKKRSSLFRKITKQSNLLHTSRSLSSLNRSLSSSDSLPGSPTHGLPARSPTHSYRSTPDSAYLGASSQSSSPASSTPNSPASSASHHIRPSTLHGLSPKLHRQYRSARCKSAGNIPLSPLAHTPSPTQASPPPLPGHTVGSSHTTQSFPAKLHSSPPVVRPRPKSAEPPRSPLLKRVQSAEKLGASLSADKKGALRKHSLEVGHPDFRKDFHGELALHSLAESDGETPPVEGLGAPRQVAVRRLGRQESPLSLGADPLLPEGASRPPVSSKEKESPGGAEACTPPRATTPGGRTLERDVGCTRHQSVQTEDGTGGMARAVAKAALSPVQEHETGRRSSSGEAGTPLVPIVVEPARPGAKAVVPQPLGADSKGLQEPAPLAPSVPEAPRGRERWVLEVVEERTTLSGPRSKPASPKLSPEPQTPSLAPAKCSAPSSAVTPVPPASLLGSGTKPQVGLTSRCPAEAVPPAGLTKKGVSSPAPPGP
Sequence of D(2) dopamine receptor (P14416 whole entry): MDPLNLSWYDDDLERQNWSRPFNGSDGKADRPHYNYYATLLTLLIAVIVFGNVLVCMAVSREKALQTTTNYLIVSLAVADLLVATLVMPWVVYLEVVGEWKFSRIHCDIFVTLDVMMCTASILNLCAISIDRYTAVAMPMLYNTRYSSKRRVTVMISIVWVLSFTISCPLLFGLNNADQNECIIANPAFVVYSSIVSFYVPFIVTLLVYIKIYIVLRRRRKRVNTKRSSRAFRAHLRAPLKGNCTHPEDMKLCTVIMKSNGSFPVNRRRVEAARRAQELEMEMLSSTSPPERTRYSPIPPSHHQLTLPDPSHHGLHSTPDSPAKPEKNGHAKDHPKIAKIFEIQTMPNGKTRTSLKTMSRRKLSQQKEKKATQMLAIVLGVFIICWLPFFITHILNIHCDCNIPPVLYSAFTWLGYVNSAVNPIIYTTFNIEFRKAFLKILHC

For the compound `CC(C)(C)OC(=O)N1CCCC1CNC1CCC(c2cc(F)ccc2F)(S(=O)(=O)c2ccc(Cl)cc2)CC1` (stereo not given) [GSI-NC], in assay [1], the Ki came to 1220 nM.

For the compound `O=S(=O)(NC1CCC(c2cc(F)ccc2F)(S(=O)(=O)c2ccc(Cl)cc2)CC1)C(F)(F)F` (stereo not given) [MRK-560], the residual activity is 90% in assay [2]; 100% in assay [3]; 84% in [4]; 94% in assay [5]; 100% in assay [6]; 100% in [7]. Besides, the residual activity in assay [8], in assay [9], in assay [10], in assay [11], in assay [12] and in assay [13] was 100% throughout. Further, the residual activity in assay [14] is 93%; in assay [15] it was 100%; in assay [16], 94%; in assay [17] it was 90%; in [18] it was 98%; in assay [19], 100%. Further, the residual activity in assay [20] was 100%; in assay [21], 84%; in assay [22], 100%; in [23] it was 97%; in [24], 100%; in assay [25], 88%. The residual activity in assay [26] was 93%; in assay [27], 100%; in assay [28], 100%; in [29], 69%; in [30], 99%; in assay [31], 100%. In addition, the residual activity in assay [32] is 100%; in assay [33] it was 100%; in [34] it was 100%; in assay [35] it was 60%; in assay [36], 100%; in assay [37] it was 100%. Further, the residual activity is 100% in [38]; 100% in [39]; 96% in assay [40]; 100% in assay [41]; 100% in assay [42]; 85% in [43]. For the same compound, the residual activity in assay [44] is 98%. Besides, the inhibition in [45] is 37.2%.
